Measured values taken from PubChem BioAssay (NCI).
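Exposure lasted 48 hours, with cells grown in 96-well plates and compounds tested at five concentrations. The concentration for 50% growth inhibition is given as GI50. TGI denotes the concentration required for complete inhibition of growth.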

Columns and labels:
Experiment in all cases: growth of human tumour cells (NCI), 48 h
786-0 renal = test system: 786-0 renal
A498 renal = test system: A498 renal
A549 NSCLC = test system: A549 NSCLC
ACHN renal = test system: ACHN renal
BT-549 breast = test system: BT-549 breast
CAKI-1 renal = test system: CAKI-1 renal
CCRF-CEM leukemia = test system: CCRF-CEM leukemia
COLO 205 colon = test system: COLO 205 colon
DU-145 prostate = test system: DU-145 prostate
EKVX NSCLC = test system: EKVX NSCLC
HCC-2998 colon = test system: HCC-2998 colon
HCT-116 colon = test system: HCT-116 colon
HCT-15 colon = test system: HCT-15 colon
HL-60(TB) leukemia = test system: HL-60(TB) leukemia
HOP-62 NSCLC = test system: HOP-62 NSCLC
HOP-92 NSCLC = test system: HOP-92 NSCLC
HS 578T breast = test system: HS 578T breast
HT29 colon = test system: HT29 colon
IGROV1 ovarian = test system: IGROV1 ovarian
K-562 leukemia = test system: K-562 leukemia
KM12 colon = test system: KM12 colon
LOX IMVI melanoma = test system: LOX IMVI melanoma
M14 melanoma = test system: M14 melanoma
MALME-3M melanoma = test system: MALME-3M melanoma
MCF7 breast = test system: MCF7 breast
MDA-MB-231 breast = test system: MDA-MB-231 breast
MDA-MB-435 = test system: MDA-MB-435
MOLT-4 leukemia = test system: MOLT-4 leukemia
NCI-H226 lung = test system: NCI-H226 lung
NCI-H23 lung = test system: NCI-H23 lung
NCI-H460 lung = test system: NCI-H460 lung
NCI-H522 lung = test system: NCI-H522 lung
NCI/ADR-RES ovarian = test system: NCI/ADR-RES ovarian
OVCAR-3 ovarian = test system: OVCAR-3 ovarian
OVCAR-4 ovarian = test system: OVCAR-4 ovarian
OVCAR-5 ovarian = test system: OVCAR-5 ovarian
OVCAR-8 ovarian = test system: OVCAR-8 ovarian
PC-3 prostate = test system: PC-3 prostate
RPMI-8226 leukemia = test system: RPMI-8226 leukemia
RXF 393 renal = test system: RXF 393 renal
SF-268 CNS = test system: SF-268 CNS
SF-295 CNS = test system: SF-295 CNS
SF-539 CNS = test system: SF-539 CNS
SK-MEL-2 melanoma = test system: SK-MEL-2 melanoma
SK-MEL-28 melanoma = test system: SK-MEL-28 melanoma
SK-MEL-5 melanoma = test system: SK-MEL-5 melanoma
SK-OV-3 ovarian = test system: SK-OV-3 ovarian
SN12C renal = test system: SN12C renal
SNB-19 CNS = test system: SNB-19 CNS
SNB-75 CNS = test system: SNB-75 CNS
SR leukemia = test system: SR leukemia
SW-620 colon = test system: SW-620 colon
T-47D breast = test system: T-47D breast
TK-10 renal = test system: TK-10 renal
U251 CNS = test system: U251 CNS
UACC-257 melanoma = test system: UACC-257 melanoma
UACC-62 melanoma = test system: UACC-62 melanoma
UO-31 renal = test system: UO-31 renal

CCCCCCC1N=C(N)N=C(N)N1c1cccc(Cl)c1 (centres undefined)
GI50 (786-0 renal): 0.289 µM
TGI (786-0 renal): 13.3 µM
GI50 (A498 renal): 2.67 µM
TGI (A498 renal): 15.6 µM
GI50 (A549 NSCLC): 0.181 µM
TGI (A549 NSCLC): > 44.5 µM
GI50 (ACHN renal): 9.28 µM
TGI (ACHN renal): > 100 µM
GI50 (BT-549 breast): 0.506 µM
TGI (BT-549 breast): 14.5 µM
GI50 (CAKI-1 renal): 21.8 µM
TGI (CAKI-1 renal): > 78.5 µM
GI50 (CCRF-CEM leukemia): 0.442 µM
TGI (CCRF-CEM leukemia): > 66.8 µM
GI50 (COLO 205 colon): 1.44 µM
TGI (COLO 205 colon): 18.4 µM
GI50 (DU-145 prostate): 0.587 µM
TGI (DU-145 prostate): 18 µM
GI50 (EKVX NSCLC): 0.307 µM
TGI (EKVX NSCLC): 19.3 µM
GI50 (HCC-2998 colon): 0.668 µM
TGI (HCC-2998 colon): 11.2 µM
GI50 (HCT-116 colon): 0.0747 µM
TGI (HCT-116 colon): 14.3 µM
GI50 (HCT-15 colon): 21.6 µM
TGI (HCT-15 colon): > 100 µM
GI50 (HL-60(TB) leukemia): 1.14 µM
TGI (HL-60(TB) leukemia): 10.7 µM
GI50 (HOP-62 NSCLC): 0.436 µM
TGI (HOP-62 NSCLC): 10.9 µM
GI50 (HOP-92 NSCLC): 0.491 µM
TGI (HOP-92 NSCLC): 5.94 µM
GI50 (HS 578T breast): 0.871 µM
TGI (HS 578T breast): 9.22 µM
GI50 (HT29 colon): 0.0514 µM
TGI (HT29 colon): 7.23 µM
GI50 (IGROV1 ovarian): 0.199 µM
TGI (IGROV1 ovarian): 5.88 µM
GI50 (K-562 leukemia): 0.841 µM
TGI (K-562 leukemia): 24.6 µM
GI50 (KM12 colon): 0.421 µM
TGI (KM12 colon): 7.26 µM
GI50 (LOX IMVI melanoma): 0.0917 µM
TGI (LOX IMVI melanoma): 13.2 µM
GI50 (M14 melanoma): 0.668 µM
TGI (M14 melanoma): 15.5 µM
GI50 (MALME-3M melanoma): 0.765 µM
TGI (MALME-3M melanoma): 15.6 µM
GI50 (MCF7 breast): 0.368 µM
TGI (MCF7 breast): 12.7 µM
GI50 (MDA-MB-231 breast): 1.93 µM
TGI (MDA-MB-231 breast): 22.5 µM
GI50 (MDA-MB-435): 0.0479 µM
TGI (MDA-MB-435): 13.2 µM
GI50 (MOLT-4 leukemia): 0.94 µM
TGI (MOLT-4 leukemia): 17.8 µM
GI50 (NCI-H226 lung): 1.75 µM
TGI (NCI-H226 lung): 24.5 µM
GI50 (NCI-H23 lung): 0.496 µM
TGI (NCI-H23 lung): 15 µM
GI50 (NCI-H460 lung): 0.0873 µM
TGI (NCI-H460 lung): 12.7 µM
GI50 (NCI-H522 lung): 0.701 µM
TGI (NCI-H522 lung): 14.1 µM
GI50 (NCI/ADR-RES ovarian): 75.8 µM
TGI (NCI/ADR-RES ovarian): > 100 µM
GI50 (OVCAR-3 ovarian): 0.863 µM
TGI (OVCAR-3 ovarian): 10.5 µM
GI50 (OVCAR-4 ovarian): 1.76 µM
TGI (OVCAR-4 ovarian): 38.2 µM
GI50 (OVCAR-5 ovarian): 0.794 µM
TGI (OVCAR-5 ovarian): 23.1 µM
GI50 (OVCAR-8 ovarian): 0.612 µM
TGI (OVCAR-8 ovarian): 19.5 µM
GI50 (PC-3 prostate): 0.0576 µM
TGI (PC-3 prostate): 16 µM
GI50 (RPMI-8226 leukemia): 0.904 µM
TGI (RPMI-8226 leukemia): 22 µM
GI50 (RXF 393 renal): 3.44 µM
TGI (RXF 393 renal): 15.7 µM
GI50 (SF-268 CNS): 0.0591 µM
TGI (SF-268 CNS): 11.5 µM
GI50 (SF-295 CNS): 0.102 µM
TGI (SF-295 CNS): 1.71 µM
GI50 (SF-539 CNS): 0.0846 µM
TGI (SF-539 CNS): 5.76 µM
GI50 (SK-MEL-2 melanoma): 11.3 µM
TGI (SK-MEL-2 melanoma): 27.7 µM
GI50 (SK-MEL-28 melanoma): 2.34 µM
TGI (SK-MEL-28 melanoma): 17.4 µM
GI50 (SK-MEL-5 melanoma): 0.474 µM
TGI (SK-MEL-5 melanoma): 13 µM
GI50 (SK-OV-3 ovarian): 1.22 µM
TGI (SK-OV-3 ovarian): 20.9 µM
GI50 (SN12C renal): 0.559 µM
TGI (SN12C renal): 13.1 µM
GI50 (SNB-19 CNS): 0.255 µM
TGI (SNB-19 CNS): 8.58 µM
GI50 (SNB-75 CNS): 0.347 µM
TGI (SNB-75 CNS): 6.75 µM
GI50 (SR leukemia): 0.748 µM
TGI (SR leukemia): > 42.7 µM
GI50 (SW-620 colon): 0.188 µM
TGI (SW-620 colon): 15.9 µM
GI50 (T-47D breast): 6.19 µM
TGI (T-47D breast): 23.1 µM
GI50 (TK-10 renal): 3.66 µM
TGI (TK-10 renal): 25.9 µM
GI50 (U251 CNS): 0.0616 µM
TGI (U251 CNS): 13.7 µM
GI50 (UACC-257 melanoma): 6.37 µM
TGI (UACC-257 melanoma): 29.5 µM
GI50 (UACC-62 melanoma): 0.527 µM
TGI (UACC-62 melanoma): 12.3 µM
GI50 (UO-31 renal): 31.5 µM
TGI (UO-31 renal): 97.5 µM

CN(C)Cc1c(O)ccc2c1c1c(n2C)C(=O)c2ccccc2C1=O
TGI (786-0 renal): > 100 µM
TGI (A498 renal): 14.7 µM
TGI (A549 NSCLC): > 100 µM
TGI (ACHN renal): > 100 µM
TGI (BT-549 breast): 42.1 µM
TGI (CAKI-1 renal): 70.3 µM
TGI (CCRF-CEM leukemia): > 100 µM
TGI (COLO 205 colon): 40 µM
TGI (DU-145 prostate): > 100 µM
TGI (EKVX NSCLC): > 100 µM
TGI (HCC-2998 colon): 13.9 µM
TGI (HCT-116 colon): > 100 µM
TGI (HCT-15 colon): > 100 µM
TGI (HL-60(TB) leukemia): > 100 µM
TGI (HOP-62 NSCLC): > 100 µM
TGI (HOP-92 NSCLC): > 100 µM
TGI (HS 578T breast): > 100 µM
TGI (HT29 colon): 5.19 µM
TGI (IGROV1 ovarian): 85.2 µM
TGI (K-562 leukemia): > 100 µM
TGI (KM12 colon): 23.9 µM
TGI (LOX IMVI melanoma): 18.6 µM
TGI (M14 melanoma): > 100 µM
TGI (MALME-3M melanoma): 15.5 µM
TGI (MCF7 breast): > 100 µM
TGI (MDA-MB-231 breast): > 100 µM
TGI (MDA-MB-435): 21.1 µM
TGI (MOLT-4 leukemia): > 100 µM
TGI (NCI-H226 lung): 38.1 µM
TGI (NCI-H23 lung): 27.4 µM
TGI (NCI-H460 lung): > 100 µM
TGI (NCI-H522 lung): 20.8 µM
TGI (NCI/ADR-RES ovarian): 18.3 µM
TGI (OVCAR-3 ovarian): 48.4 µM
TGI (OVCAR-4 ovarian): 32.3 µM
TGI (OVCAR-5 ovarian): 74.4 µM
TGI (OVCAR-8 ovarian): > 100 µM
TGI (PC-3 prostate): 32.7 µM
TGI (RPMI-8226 leukemia): > 100 µM
TGI (RXF 393 renal): 81.5 µM
TGI (SF-268 CNS): > 100 µM
TGI (SF-295 CNS): 84.6 µM
TGI (SF-539 CNS): > 100 µM
TGI (SK-MEL-2 melanoma): 24.8 µM
TGI (SK-MEL-28 melanoma): 20 µM
TGI (SK-MEL-5 melanoma): 23.1 µM
TGI (SK-OV-3 ovarian): > 100 µM
TGI (SN12C renal): > 100 µM
TGI (SNB-19 CNS): > 100 µM
TGI (SNB-75 CNS): 51.8 µM
TGI (SR leukemia): > 100 µM
TGI (SW-620 colon): > 100 µM
TGI (T-47D breast): > 100 µM
TGI (TK-10 renal): 50.7 µM
TGI (U251 CNS): > 100 µM
TGI (UACC-257 melanoma): 23.9 µM
TGI (UACC-62 melanoma): 18.2 µM
TGI (UO-31 renal): 37.5 µM
